Like-named read-outs stand apart in the source and are kept apart here.
Assays:
[1] = male, Sprague-Dawley, rat, in vivo, 150 mg/kg
Protocol: Twenty-six male Sprague-Dawley rats weighing approximately 200 to 300 g were used for the study. The jugular vein of six animals were cannulated and the rest of the animals were used without any further preparation.
Dosing was conducted on two occasions. […] The drug was prepared in a suspension formulation in accordance with the present invention. The blood samples (approximately 0.5 mL/sample) were collected from each animal at predose, 15, 30 minutes, 1, 2, 4 and 6 hours postdose into microtainer tubes containing lithium heparin as an anticoagulant. Replacement blood was infused into each animal following each blood draw. […] The drug was prepared in a solution formulation. […] Blood samples were collected from each animal via the orbital sinus at predose, 2, 15, 30 minutes, 1, 2, 4 and 6 hours postdose. Each animal was bled twice. The blood was centrifuged immediately and the resulting plasma in tubes was flash frozen in liquid nitrogen and stored at approximately −70° C. until analysis.
L-Methinione can also be detected under the same HPLC conditions.
Descriptive pharmacokinetic parameters were determined by standard model independent methods (Gibaldi, M. and Perrier, D. Pharmacokinetics, Second Edition, Marcel Dekker, Inc., New York, 1982) based on the mean plasma concentration-time data. The plasma concentrations were rounded to one decimal place before the calculation. Plasma samples with concentrations below the quantifiable limit (BQL) were assigned values of zero for the calculation of mean plasma concentration.
The mean plasma concentration-time profiles are depicted in FIG. 2.

[2] = system: oxidative stress-induced ototoxicity and nephrotoxicity; details: in vivo; cited from earlier work
[3] = cited from earlier work

AUC(0-inf) of L-Methionine ([1]; iv): 326.0 µg·h/mL | Cmax of L-Methionine ([1]; iv): 161700 ng/mL | T1/2 (half-life) of L-Methionine ([1]; iv): 1.9 h | Tmax of L-Methionine ([1]; iv): 0.50 h | Mean Plasma Concentrations of L-Methionine ([1]; iv, 0 h): 132.6 ng/mL | Mean Plasma Concentrations of L-Methionine ([1]; iv, 0.03 h): 132.6 ng/mL | Mean Plasma Concentrations of L-Methionine ([1]; iv, 0.25 h): 146.5 ng/mL | Mean Plasma Concentrations of L-Methionine ([1]; iv, 0.5 h): 161.7 ng/mL | Mean Plasma Concentrations of L-Methionine ([1]; iv, 1 h): 76.1 ng/mL | Mean Plasma Concentrations of L-Methionine ([1]; iv, 2 h): 45.4 ng/mL | Mean Plasma Concentrations of L-Methionine ([1]; iv, 4 h): 23.2 ng/mL | Mean Plasma Concentrations of L-Methionine ([1]; iv, 6 h): 10.7 ng/mL | AUC(0-inf) of L-Methionine ([1]; po): 450.2 µg·h/mL | Cmax of L-Methionine ([1]; po): 47200 ng/mL | T1/2 (half-life) of L-Methionine ([1]; po): 9.9 h | Tmax of L-Methionine ([1]; po): 2.00 h | Mean Plasma Concentrations of L-Methionine ([1]; po, 0 h): 7.8 ng/mL | Mean Plasma Concentrations of L-Methionine ([1]; po, 0.5 h): 33.1 ng/mL | Mean Plasma Concentrations of L-Methionine ([1]; po, 1 h): 32.0 ng/mL | Mean Plasma Concentrations of L-Methionine ([1]; po, 2 h): 47.2 ng/mL | Mean Plasma Concentrations of L-Methionine ([1]; po, 4 h): 22.2 ng/mL | Mean Plasma Concentrations of L-Methionine ([1]; po, 6 h): 18.8 ng/mL | Mean Plasma Concentrations of L-Methionine ([1]; po, 12 h): 12.6 ng/mL
SMILES: CSCC[C@H](N)C(=O)O [L-Methionine, L-methionine]
effect on oxidative stress-induced ototoxicity and nephrotoxicity associated with cisplatin [2]: effectively prevent | dosage reported safe for chronic administration ([3]; adult): 20 g/day | side-effects in human studies ([3]; most human studies): no side-effects
